# Active and inactive are the calls of the source. The calls are words filed in the database; no cut-off is given here.
# Experiments:
# [1] = tested on: HeLa; assay: Induction of apoptosis in human HeLa cells assessed as increase in percentage of apoptosis/necrosis at 50 nM incubated for 3 hrs with photo-irradiation at 54 J/cm2 by Annexin V-FITC/PI staining based flow cytometry relative to control; assay type: functional
# [2] = tested on: HeLa; assay: Induction of apoptosis in human HeLa cells assessed as early apoptotic cells at 100 nM incubated for 3 hrs with photo-irradiation at 54 J/cm2 by Annexin V-FITC/PI staining based flow cytometry relative to control; assay type: functional
# [3] = Toxicity in Balb/C nu/nu mouse xenografted with human HeLa cells assessed as change in liver histology at 2.5 umol/kg, iv with photo-irradiation at 30 J/cm2 after 1 hr of compound administration measured after 24 days by H and E staining based analysis; assay type: organism-based; conditions: in vivo, 576 h, dose 2.5 µmol/kg, time 24 day
# [4] = Toxicity in Balb/C nu/nu mouse xenografted with human HeLa cells assessed as change in spleen histology at 2.5 umol/kg, iv with photo-irradiation at 30 J/cm2 after 1 hr of compound administration measured after 24 days by H and E staining based analysis; assay type: organism-based; conditions: in vivo, 576 h, dose 2.5 µmol/kg, time 24 day
# [5] = tested on: HeLa; assay: Induction of apoptosis in human HeLa cells assessed as viable cells at 25 nM incubated for 3 hrs with photo-irradiation at 54 J/cm2 by Annexin V-FITC/PI staining based flow cytometry relative to control; assay type: functional; conditions: light or radiation study, read-out: Activity
# [6] = tested on: HeLa; assay: Induction of apoptosis in human HeLa cells assessed as necrotic cells at 100 nM incubated for 3 hrs with photo-irradiation at 54 J/cm2 by Annexin V-FITC/PI staining based flow cytometry relative to control; assay type: functional
# [7] = tested on: HeLa; assay: Induction of apoptosis in human HeLa cells assessed as increase in percentage of apoptosis/necrosis at 25 nM incubated for 3 hrs with photo-irradiation at 54 J/cm2 by Annexin V-FITC/PI staining based flow cytometry relative to control; assay type: functional
# [8] = tested on: HeLa; assay: Disruption of lysosomes in human HeLa cells at 50 to 100 nM incubated for 3 hrs with photo-irradiation at 16 J/cm2 by AO staining based confocal scanning microscopy; assay type: functional, cell-based; conditions: dose 50-100 nM
# [9] = tested on: HeLa; assay: Antitumor activity against human HeLa cells xenografted in Balb/C nu/nu mouse assessed as reduction in tumor histology at 2.5 umol/kg, iv with photo-irradiation at 30 J/cm2 after 1 hr of compound administration measured after 24 days by H and E staining based analysis; assay type: functional, organism-based; conditions: dose 2.5 µmol/kg, time 24.0 day
# [10] = Drug accumulation in tumor of Balb/C nu/nu mouse xenografted with human HeLa cells at 2.5 umol/kg, iv measured for 3 hrs by IVIS imaging analysis; assay type: ADME, organism-based, Neoplasm; conditions: in vivo, dose 2.5 µmol/kg
# [11] = Toxicity in Balb/C nu/nu mouse xenografted with human HeLa cells assessed as change in lung histology at 2.5 umol/kg, iv with photo-irradiation at 30 J/cm2 after 1 hr of compound administration measured after 24 days by H and E staining based analysis; assay type: organism-based; conditions: in vivo, 576 h, dose 2.5 µmol/kg, time 24 day
# [12] = tested on: HeLa; assay: Induction of apoptosis in human HeLa cells assessed as necrotic cells at 25 nM incubated for 3 hrs with photo-irradiation at 54 J/cm2 by Annexin V-FITC/PI staining based flow cytometry relative to control; assay type: functional
# [13] = Toxicity in Balb/C nu/nu mouse xenografted with human HeLa cells assessed as increase in body weight at 2.5 umol/kg, iv with photo-irradiation at 30 J/cm2 after 1 hr of compound administration measured for 24 days; assay type: organism-based; conditions: in vivo, 576 h, dose 2.5 µmol/kg, time 24 day
# [14] = Drug distribution in liver of Balb/C nu/nu mouse xenografted with human HeLa cells at 2.5 umol/kg, iv measured for 24 hr by IVIS imaging analysis; assay type: ADME, organism-based; conditions: in vivo, dose 2.5 µmol/kg
# [15] = Drug uptake in human HeLa cells at 5 uM by confocal scanning microscopy; assay type: ADME, cell-based; conditions: 3 h, TDE = time-dependent effect
# [16] = Drug distribution in Balb/C nu/nu mouse xenografted with human HeLa cells at 2.5 umol/kg, iv measured for 24 hr by IVIS imaging analysis; assay type: ADME, organism-based; conditions: in vivo, dose 2.5 µmol/kg
# [17] = tested on: HeLa; assay: Induction of ROS production in human HeLa cells upto 200 nM preincubated for 2 hrs followed by H2DCFDA probe exposure for 30 mins and subsequent removal of probe by confocal scanning microscopic analysis; assay type: functional, cell-based; conditions: time 2.5 hrs
# [18] = Toxicity in Balb/C nu/nu mouse xenografted with human HeLa cells assessed as drug tolerance at 2.5 umol/kg, iv with photo-irradiation at 30 J/cm2 after 1 hr of compound administration measured for 24 days; assay type: organism-based; conditions: in vivo, 576 h, dose 2.5 µmol/kg, time 24 day
# [19] = tested on: HeLa; assay: Induction of apoptosis in human HeLa cells assessed as late apoptotic cells at 100 nM incubated for 3 hrs with photo-irradiation at 54 J/cm2 by Annexin V-FITC/PI staining based flow cytometry relative to control; assay type: functional
# [20] = tested on: HeLa; assay: Disruption of lysosomes in human HeLa cells at 100 nM incubated for 3 hrs by AO staining based confocal scanning microscopy; assay type: functional, cell-based
# [21] = Drug localization in mitochondria of human HeLa cells at 5 uM incubated for 30 mins by MitoTracker Green FM dye based confocal scanning microscopic analysis; assay type: ADME; conditions: 0.5 h
# [22] = tested on: HeLa; assay: Antitumor activity against human HeLa cells xenografted in Balb/C nu/nu mouse assessed as tumor growth inhibition at 2.5 umol/kg, iv with photo-irradiation at 30 J/cm2 after 1 hr of compound administration measured for 24 days; assay type: functional, organism-based; conditions: dose 2.5 µmol/kg, time 24.0 day
# [23] = tested on: HeLa; assay: Induction of apoptosis in human HeLa cells assessed as necrotic cells at 100 nM incubated for 3 hrs by Annexin V-FITC/PI staining based flow cytometry relative to control; assay type: toxicity, cell-based; conditions: 0.1 µM
# [24] = tested on: HeLa; assay: Induction of apoptosis in human HeLa cells assessed as early apoptotic cells at 12.5 nM incubated for 3 hrs with photo-irradiation at 54 J/cm2 by Annexin V-FITC/PI staining based flow cytometry relative to control; assay type: functional
# [25] = Drug localization in lysosome of human HeLa cells at 5 uM incubated for 30 mins by Lyso-tracker Green DND-26 dye based confocal scanning microscopic analysis; assay type: ADME, subcellular; conditions: 0.5 h
# [26] = tested on: HeLa; assay: Induction of ROS production in human HeLa cells preincubated for 2 hrs followed by H2DCFDA probe exposure for 30 mins and subsequent removal of probe with photo-irradiation at 16 J/cm2 by confocal scanning microscopic analysis; assay type: functional, cell-based; conditions: dose <= 200.0 nM, time 2.5 hrs
# [27] = tested on: HeLa; assay: Induction of ROS production in human HeLa cells upto 200 nM preincubated for 2 hrs followed by H2DCFDA probe exposure for 30 mins and subsequent removal of probe with photo-irradiation at 16 J/cm2 by confocal scanning microscopic analysis; assay type: functional, cell-based; conditions: time 2.5 hrs
# [28] = tested on: HepG2; assay: Photodynamic cytotoxicity against human HepG2 cells assessed as inhibition of cell viability incubated for 3 hrs followed by photo-irradiation at 54 J/cm2 measured after 24 hrs by CCK8 assay; assay type: functional, cell-based; conditions: HepG2, light or radiation study
# [29] = tested on: HeLa; assay: Induction of apoptosis in human HeLa cells assessed as late apoptotic cells at 25 nM incubated for 3 hrs with photo-irradiation at 54 J/cm2 by Annexin V-FITC/PI staining based flow cytometry relative to control; assay type: functional
# [30] = tested on: HUVEC; assay: Photodynamic cytotoxicity against HUVEC cells assessed as inhibition of cell viability incubated for 3 hrs followed by photo-irradiation at 54 J/cm2 measured after 24 hrs by CCK8 assay; assay type: functional, cell-based; conditions: Homo sapiens, light or radiation study
smiles,measurement,setting,value
COc1ccc2c(c1)CCc1c(-c3ccccc3)c3n(c1-2)[B-](F)(F)[N+]1=C(c2ccc(OCC(=O)NCCCN4CCOCC4)cc2)C(I)=C(c2ccccc2)C1=N3,Activity,[1],41.8%
same,Activity,[2],73.1%
same,Activity,[3],Non-Toxic
same,Activity,[4],Non-Toxic
same,viability at 0.025 µM,[5],47%
same,Activity,[6],0.57%
same,Activity,[7],13.1%
same,Activity,[8],Active
same,Activity,[9],Active
same,Drug uptake,[10],Active
same,Activity,[11],Non-Toxic
same,Activity,[12],3.67%
same,Activity,[13],Non-Toxic
same,Drug uptake,[14],Not Active
same,Drug uptake,[15],Tde
same,Drug uptake,[16],Not Active
same,Activity,[17],inactive
same,Activity,[18],Non-Toxic
same,Activity,[19],16.6%
same,Activity,[20],inactive
same,Drug uptake,[21],Not Active
same,Activity,[22],Active
same,Activity,[23],1.04%
same,Activity,[24],5.28%
same,Drug uptake,[25],Active
same,Activity,[26],Dose-Dependent Effect
same,Activity,[27],Active
same,IC50,[28],6.1 nM
same,Activity,[29],12.87%
same,IC50,[30],11.9 nM

# Source: ChEMBL document CHEMBL5338790, “Discovery of Subcellular-Targeted Aza-BODIPY Photosensitizers for Efficient Photodynamic Antitumor Therapy” (J Med Chem, 2023)
